One may read the IC50 as the midpoint of a concentration-inhibition curve.

The assay concerns the target T1, Full-length USP19 (Homo sapiens, UniProt O94966).
T1 construct: Full-length USP19 was purchased from Boston Biochem (E-576); purchased Boston Biochem E-576
T1 sequence (O94966 1-1318): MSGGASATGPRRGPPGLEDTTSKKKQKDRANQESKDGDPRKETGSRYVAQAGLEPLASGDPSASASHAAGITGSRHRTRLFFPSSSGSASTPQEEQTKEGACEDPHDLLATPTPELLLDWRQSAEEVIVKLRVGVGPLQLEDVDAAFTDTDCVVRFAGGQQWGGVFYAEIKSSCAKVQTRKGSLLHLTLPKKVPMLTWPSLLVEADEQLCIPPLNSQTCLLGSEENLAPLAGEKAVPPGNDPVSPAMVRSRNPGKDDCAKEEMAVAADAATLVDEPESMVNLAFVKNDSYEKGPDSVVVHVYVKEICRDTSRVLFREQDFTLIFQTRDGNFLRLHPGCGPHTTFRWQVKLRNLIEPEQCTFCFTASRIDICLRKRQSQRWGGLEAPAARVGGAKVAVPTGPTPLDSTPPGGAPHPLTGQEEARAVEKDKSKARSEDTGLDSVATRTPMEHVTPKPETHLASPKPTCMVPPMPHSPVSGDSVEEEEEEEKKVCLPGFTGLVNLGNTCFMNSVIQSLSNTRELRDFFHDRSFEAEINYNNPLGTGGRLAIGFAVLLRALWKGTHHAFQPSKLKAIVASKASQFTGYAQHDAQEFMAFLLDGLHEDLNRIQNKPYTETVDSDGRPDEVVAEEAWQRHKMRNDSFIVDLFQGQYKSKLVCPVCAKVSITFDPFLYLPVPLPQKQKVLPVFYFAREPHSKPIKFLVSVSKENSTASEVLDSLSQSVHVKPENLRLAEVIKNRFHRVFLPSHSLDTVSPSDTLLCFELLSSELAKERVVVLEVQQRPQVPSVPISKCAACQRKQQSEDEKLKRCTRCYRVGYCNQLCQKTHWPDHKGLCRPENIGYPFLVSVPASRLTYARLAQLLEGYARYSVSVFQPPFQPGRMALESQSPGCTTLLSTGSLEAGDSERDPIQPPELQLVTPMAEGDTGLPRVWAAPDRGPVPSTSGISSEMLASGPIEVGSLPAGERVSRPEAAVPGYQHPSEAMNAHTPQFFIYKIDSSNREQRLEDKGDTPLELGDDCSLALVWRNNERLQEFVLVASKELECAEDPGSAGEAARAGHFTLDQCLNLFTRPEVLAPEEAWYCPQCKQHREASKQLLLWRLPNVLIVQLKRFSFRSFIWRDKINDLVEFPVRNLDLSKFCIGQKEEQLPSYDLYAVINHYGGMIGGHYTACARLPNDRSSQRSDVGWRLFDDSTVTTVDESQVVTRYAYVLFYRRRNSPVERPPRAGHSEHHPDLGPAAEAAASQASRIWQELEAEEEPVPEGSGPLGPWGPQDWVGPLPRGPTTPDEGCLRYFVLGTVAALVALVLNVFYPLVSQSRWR
Description: USP19 fluorescence polarisation (FP) homogeneous assay with Ubiquitin-Lys-TAMRA substrate. The assay is classed as biochemical. As to conditions: 2.5 nM USP19, 30 min pre-incubation, average of at least two duplicate experiments. How it is done: Unless otherwise stated, all other reagents were purchased from Sigma. Enzymatic reactions were conducted in black flat bottom polystyrene 384-well plates (Nunc) and 30 μL total volume. […] Inhibitors were stored as 10 mM DMSO stocks in an inert environment (low humidity, dark, low oxygen, room temperature) using the Storage Pod System and serial dilutions were prepared in buffer just prior to the assay (from 200 μM to 2 μM, 8-18 data point curve).
Following incubation at RT for 30 min, the enzymatic reactions were initiated by dispensing the Ub substrate (500 nM, 10 μL). FP was measured every 15 min over a period of 90 min (within the linear range of the assay) using a Synergy 4 plate reader (BioTek) exciting at 530 nm and measuring the amount of parallel and perpendicular light at 575 nm. The FP signal was subsequently normalised to the no compound control.
Background: In fluorescence polarisation assays a small probe gives low polarisation when free and higher when bound to something large.
On to `O=C(N1CC[C@@](O)(Cn2cnc(-c3ccc(OC4CC4)cc3)cc2=O)C2(CCCC2)C1)N1CCNC[C@H]1c1ccccc1` [Example 350, 6-(4-Cyclo-propoxyphenyl)-3-(((S)-10-hydroxy-7-((R)-2-phenylpipera-zine-1-carbonyl)-7-azaspiro[4.5]decan-10-yl)methyl)pyrimi-din-4(3H)-one], for which the IC50 was below 0.5 µM.
The same measure for `Cn1cc2ncn(CC3(O)CCN(C(=O)N4CCNC[C@H]4c4ccccc4)CC34CCCC4)c(=O)c2n1` (stereo partly drawn) [Example 179, 6-((10-Hydroxy-7-((R)-2-phenylpiperazine-1-carbonyl)-7-azaspiro[4.5]decan-10-yl)methyl)-2-methyl-2,6-dihydro-7H-pyrazolo[4,3-d]pyrimidin-7-one]: 5 to 50 µM; for `C[C@H](CC1CCCCC1)C(=O)N1CCC(O)(Cn2cc(C(=O)N3CCNCC3)ncc2=O)C2(CCCC2)C1` (stereo partly drawn) [Example 11, 1-((7-((R)-3-Cyclohexyl-2-methylpropanoyl)-10-hydroxy-7-azaspiro[4.5]decan-10-yl)methyl)-5-(piperazine-1-carbonyl)pyrazin-2(1H)-one]: below 0.5 µM.
The same measure for `C[C@H](CC(F)(F)F)C(=O)N1CCC(O)(CN2CCN(C3CCC(C)(C)CC3)CC2=O)C2(CCCC2)C1` (stereo partly drawn) [Example 116, 4-(4,4-Dimethylcyclohexyl)-1-((10-hydroxy-7-((R)-4,4,4-trifluoro-2-methylbutanoyl)-7-azaspiro[4.5]decan-10-yl)methyl)Piperazin-2-one]: 5 to 50 µM; for `C[C@H](CC(F)(F)F)C(=O)N1CCC(O)(CN2Cc3ncccc3C2=O)C2(CCCC2)C1` (stereo partly drawn) [Example 104, 6-((10-Hydroxy-7-((R)-4,4,4-trifluoro-2-methylbutanoyl)-7-azaspiro[4.5]decan-10-yl)methyl)-6,7-dihydro-5H-pyrrolo[3,4-b]pyridin-5-one]: 50 to 250 µM; for `O=C(NCc1cccs1)N1CC[C@@](O)(Cn2cnc(-c3ccccc3)cc2=O)C2(CCCC2)C1` [Example 214, (S)-10-Hydroxy-10-((6-oxo-4-phenylpyrimidin-1(6H)-yl)methyl)-N-(thiophen-2-ylmethyl)-7-azaspiro[4.5]decane-7-carboxamide]: below 0.5 µM.
The same measure for `C[C@H](CC1CCCCC1)C(=O)N1CCC(O)(Cn2cnc3sccc3c2=O)C2(CCCC2)C1` (stereo partly drawn) [Example 132, 3-((7-((R)-3-Cyclohexyl-2-methylpropanoyl)-10-hydroxy-7-azaspiro[4.5]decan-10-yl)methyl)thieno[2,3-d]pyrimidin-4(3H)-one]: 0.5 to 5 µM; for `C[C@H](CC(F)(F)F)C(=O)N1CCC(O)(Cn2ccncc2=O)C2(CCCC2)C1` (stereo partly drawn) [Example 5, 1-((10-Hydroxy-7-((R)-4,4,4-trifluoro-2-methylbutanoyl)-7-azaspiro[4.5]decan-10-yl)methyl)pyrazin-2(1H)-one]: 5 to 50 µM.
Consider `O=C(N1CCC(O)(Cn2cnc(-c3ccccc3)cc2=O)C2(CCCC2)C1)N1CCSCC1c1ccccc1` [Example 333, (S)-3-((10-Hydroxy-7-(3-phenylthiomorpholine-4-carbonyl)-7-azaspiro[4.5]decan-10-yl)methyl)-6-phenylpyrimidin-4(3H)-one], for which the half-inhibitory concentration (IC50) was below 0.5 µM.
The same measure for `O=C(NCc1ccccc1)N1CCC(O)(Cn2cnc(-c3cccnc3)cc2=O)C2(CCCC2)C1` (stereo not shown) [Example 200, N-Benzyl-10-hydroxy-10-((6-oxo-4-(pyridin-3-yl)pyrimidin-1(6H)-yl)methyl)-7-azaspiro[4.5]decane-7-carboxamide]: 5 to 50 µM; for `O=C(N1CCC(O)(Cn2ccncc2=O)C2(CCCC2)C1)N1CCOC[C@H]1c1ccccc1` (stereo partly drawn) [Example 90, 1-((10-Hydroxy-7-((R)-3-phenylmorpholine-4-carbonyl)-7-azaspiro[4.5]decan-10-yl)methyl)pyrazin-2(1H)-one]: 0.5 to 5 µM; for `COc1cccc(C2CNCCN2C(=O)N2CCC(O)(Cn3cnc(-c4ccccc4)cc3=O)C3(CCCC3)C2)c1` (stereo not shown) [Example 272, 3-((10-Hydroxy-7-(2-(3-methoxyphenyl)piperazine-1-carbonyl)-7-azaspiro[4.5]decan-10-yl)methyl)-6-phenylpyrimidin-4(3H)-one]: 5 to 50 µM.
On to `C[C@H](CC1CCCCC1)C(=O)N1CCC(O)(Cn2ccc3ncncc3c2=O)C2(CCCC2)C1` (stereo partly drawn) [Example 158, 6-((7-((R)-3-Cyclohexyl-2-methylpropanoyl)-10-hydroxy-7-azaspiro[4.5]decan-10-yl)methyl)pyrido[4,3-d]pyrimidin-5(6H)-one], for which the half-inhibitory concentration (IC50) was in the range of 0.5 to 5 µM.
The same measure for `CC(=O)N1CCN(CC2(O)CCN(C(=O)[C@H](C)CC(F)(F)F)CC23CCCC3)C(=O)C1` (stereo partly drawn) [Example 112, 4-Acetyl-1-((10-hydroxy-7-((R)-4,4,4-trifluoro-2-methylbutanoyl)-7-azaspiro[4.5]decan-10-yl)methyl)piperazin-2-one]: 5 to 50 µM.
The same measure for `C[C@H](CC1CCCCC1)C(=O)N1CCC(O)(Cn2cc(-c3ccccc3)c(N=S(C)(C)=O)cc2=O)C2(CCCC2)C1` (stereo partly drawn) [Example 73, 1-((7-((R)-3-Cyclohexyl-2-methylpropanoyl)-10-hydroxy-7-azaspiro[4.5]decan-10-yl)methyl)-4-((dimethyl(oxo)-λ^6-sulfaneylidene)amino)-5-phenylpyridin-2(1H)-one]: 0.5 to 5 µM; for `CCn1ncc2c(=O)n(CC3(O)CCN(C(=O)[C@H](C)CC4CCCCC4)CC34CCCC4)cnc21` (stereo partly drawn) [Example 124, 5-((7-((R)-3-Cyclohexyl-2-methylpropanoyl)-10-hydroxy-7-azaspiro[4.5]decan-10-yl)methyl)-1-ethyl-1,5-dihydro-4H-pyrazolo[3,4-d]pyrimidin-4-one]: below 0.5 µM.
Turning to `O=C(N1CCC(O)(Cn2ccc3ccncc3c2=O)C2(CCCC2)C1)N1CCNC[C@H]1c1ccccc1` (stereo partly drawn) [Example 171, 2-((10-Hydroxy-7-((R)-2-phenylpiperazine-1-carbonyl)-7-azaspiro[4.5]decan-10-yl)methyl)-2,7-naphthyridin-1(2H)-one], the IC50 was below 0.5 µM.
The same measure for `O=C(N1CCC(O)(Cn2cnc(-c3ccccc3)cc2=O)C2(CCCC2)C1)N1CCNCC1C1CCC1` (stereo not shown) [Example 276, 3-((7-(2-Cyclobutylpiperazine-1-carbonyl)-10-hydroxy-7-azaspiro[4.5]decan-10-yl)methyl)-6-phenylpyrimidin-4(3H)-one]: 5 to 50 µM; for `O=C(N1CC[C@@](O)(Cn2cnc(N3CC4CC4C3)cc2=O)C2(CCCC2)C1)N1CCNC[C@H]1c1ccccc1` (stereo partly drawn) [Example 352, 6-(3-Aza-bicyclo[3.1.0]hexan-3-yl)-3-(((S)-10-hydroxy-7-((R)-2-phenylpiperazine-1-carbonyl)-7-aza-spiro[4.5]decan-10-yl)methyl)pyrimidin-4(3H)-one]: below 0.5 µM; for `O=C(NCc1ccccc1)N1CCC(O)(Cn2cnc(-c3ccccc3)cc2=O)C2(CCCC2)C1` (stereo not shown) [Example 193, N-Benzyl-10-hydroxy-10-((6-oxo-4-phenylpyrimidin-1(6H)-yl)methyl)-7-azaspiro[4.5]decane-7-carboxamide]: below 0.5 µM.
The figure for `CN(C)C(=O)c1cn(CC2(O)CCN(C(=O)N3CCC(C(F)(F)F)C3)CC23CCCC3)c(=O)cc1-c1ccccc1` (stereo not shown) [Example 88, 1-((10-Hydroxy-7-(3-(trifluoromethyl)pyrrolidine-1-carbonyl)-7-azaspiro[4.5]decan-10-yl)methyl)-N,N-dimethyl-6-oxo-4-phenyl-1,6-dihydropyridine-3-carboxamide] is below 0.5 µM.
As to `O=C(N1CCC(O)(Cn2cnc(-c3ccccc3)cc2=O)C2(CCCC2)C1)N1CCOCC1c1cccs1` (stereo not shown) [Example 235, 3-((10-Hydroxy-7-(3-(thiophen-2-yl)morpholine-4-carbonyl)-7-azaspiro[4.5]decan-10-yl)methyl)-6-phenylpyrimidin-4(3H)-one], the IC50 was below 0.5 µM.

For the origin of these results see patent publication US20220033397A1, “PHARMACEUTICAL COMPOUNDS AND THEIR USE AS INHIBITORS OF UBIQUITIN SPECIFIC PROTEASE 19 (USP19)” (ALMAC DISCOVERY LIMITED, priority 2018, published 2022).
